Results from patent US10189887B2, “Polypeptides and uses thereof for reducing CD95-mediated cell motility” (INSERM (INSTITUT NATIONAL DE LA SANTÉ ET DE LA RECHERCHE …, priority 2014, dated 2019).

Tested on: MDA-MB-231
Assay: Boyden chamber migration of triple negative breast cancer cells
Assay type: cell-based
Conditions: MDA-MB-231 pre-incubated 1 hour with 10 μM; cl-CD95L 100 ng/mL for 24 h
Protocol: Boyden chambers contained membranes with a pore size of 8 μm (Millipore, Molsheim, France). After hydration of the membranes, breast cancer cells (10^5 cells per chamber) were added to the top chamber in low serum (1%)-containing medium. The bottom chamber was filled with low serum (1%)-containing medium in the presence or absence of cl-CD95L (100 ng/mL). Cells were cultured for 24 h at 37° C. To quantify migration, cells were mechanically removed from the top-side of the membrane using a cotton-tipped swab, and migrating cells from the reverse side were fixed with methanol and stained with Giemsa. For each experiment, five representative pictures were taken for each insert, then cells were lyzed and absorbance at 560 nm correlated to the amount of Giemsa stain was measured.

## TAT-CID: cell penetrating peptide linking the 36-amino acid-stretch of CID (CD95 residues 175 to 210) to the HIV-TAT sequence; SEQ ID NO: 6 (RKKRRQRRRKRKEVQKTCRKHRKENQGSHESPTLNPETVAINLSD; TAT-CID)
  cell migration (Boyden chamber assay): inhibits migration
